Measured values: US7781472B2, “Therapy for the treatment of disease” (TheraVida, Inc., priority 2005, dated 2010)

What was measured:
healthy human subject [1] = assay: Stimulated saliva flow, case study of oxybutynin and pilocarpine alone and combined (Example 4); format: in vivo; conditions: FIG. 1; for amount of saliva flow collected over 2 minute periods after dosing (in words): single agent alone (oxybutynin HCl 5 mg; pilocarpine HCl), single healthy subject, 8 hour period; for time at which saliva flow reached the pre-dose level: single agent alone, post-dosing
Procedure: (§1) The following measurements are made just prior to and at frequent intervals for up to 6 hours post dose: • Salivary flow is determined by chewing Parafilm for 2 minutes • Dry mouth is determined by VAS • Urine volume/void and frequency over 6 hours post dose is measured • Blood samples are taken for pharmacokinetics at pre-dose, and at 0.5, 1, 2, 3, 4, and 6 hours post dose • Food and water intake are standardized over the 6 hour period
In this study, the effect of oxybutynin, pilocarpine, the combination of the two, and placebo was measured in six separate, yet identical, studies in a single individual.
Effect of Oxybutynin—A healthy human subject was given a 5 mg dose of oxybutynin HCl and the amount of salivation was measured with time over an 8 hour period. […]

healthy human subject [2] = assay: Stimulated salivary flow, case study of oxybutynin and cevimeline alone and combined (Example 5); format: in vivo; conditions: for Amount of Saliva Collecetd over 2 min: cevimeline 30 mg and/or oxybutynin 5 mg oral, single subject, in g; for amount of saliva flow collected over 2 minute periods after dosing (in words) / time at which saliva flow reached the pre-dose level: single agent alone (oxybutynin HCl 5 mg; cevimeline 30 mg)
Procedure: In this study, the effect of oxybutynin, cevimeline, the combination of the two, and placebo was measured in separate studies in a single individual.
Effect of Oxybutynin—A healthy human subject was given a 5 mg dose of oxybutynin HCl and the amount of salivation was measured with time over an 8 hour period. As shown in FIG. 5 (●, circle), the amount of saliva flow collected over 2 minutes periods decreased after dosing and the saliva flow remained low after 3 hrs. The amount of saliva flow started increasing after 3 hrs and continued increasing reaching the pre-dose level after 8 hrs post-dosing. The data generated in this study is consistent with the literature data.
Effect of Cevimeline—In a separate human study the effect of administering 30 mg of cevimeline was evaluated in a healthy human subject to ensure that cevimeline indeed increases salivary gland flow. […] The decrease in saliva flow continued until it reached about the normal saliva flow and pre-dosing level after about 6 hrs.
Effect of Combination of Oxybutynin and Cevimeline—In a separate human study, the combination of oxybutynin and cevimeline was administered to a healthy human subject. To the subject 5 mg of oxybutynin followed simultaneously by 30 mg of cevimeline, with no time delay, was administered. Saliva flow was measured as before. Results are shown in FIG. 5 (▪, square), where the combination is referred to as THVD-102.

[3] = Plasma concentration of oxybutynin after 5 mg oxybutynin alone or followed by 5 mg pilocarpine, four way crossover clinical trial; format: in vivo, human; conditions: 5 mg pilocarpine 30 min after 5 mg oxybutynin
Procedure: as §1
The study is a double blind, randomized, placebo-controlled, with 4 sequences (4 doses over 4 weeks) with the drugs being administered orally as a single dose. There is a One-week washout between study days. […]
Plasma Concentration of Oxybutynin—In a separate study, the plasma concentration of oxybutynin was measured in two groups of subjects: one group received 5 mg of oxybutynin alone and another group received 5 mg of oxybutynin followed by 5 mg pilocarpine after 30 min. The plasma concentrations were measured before the administration of oxybutynin and in hours 1, 2, 3, 4, and 6 after its administration. […]

healthy human subject [4] = assay: Stimulated saliva flow, case study of tolterodine and pilocarpine (Example 6); format: in vivo; conditions: 2 mg tolterodine tartrate alone
Procedure: In this study, the effect of tolterodine, pilocarpine, the combination of the two, and placebo was measured in separate, yet identical, studies in a single individual.
Effect of Tolterodine—A healthy human subject was given a 2 mg dose of tolterodine tartrate and the amount of salivation was measured with time over an 8 hour period. As shown in FIGS. 6 and 7 (♦, diamond), the amount of saliva flow collected over 2 minute periods decreased after dosing and the saliva flow remained low after 3 hrs.
Effect of Dose Ratio Between Tolterodine and Pilocarpine—In this experiment the results of two separate dose ratios between tolterodine and pilocarpine were compared with the results of placebo and administration of tolterodine alone. In one experiment, 2 mg of tolterodine was administered to a healthy individual and saliva flow was measured for 8 hours. Using a similar protocol, 2 mg of tolterodine was administered to a healthy individual at t=0, followed by 5 mg of pilocarpine at t=30 min. Similarly, 2 mg of tolterodine was administered to a healthy individual at t=0, followed by 10 mg of pilocarpine at t=30 min. Finally, the results were compared with the administration of placebo (FIG. 6 (●, closed circle)). […] Therefore, an effective dose ratio for the combination […] and pilocarpine is when 2 mg of tolterodine is combined with 10 mg of pilocarpine.
Effect of Combination of Tolterodine and Pilocarpine—In a separate human study, the combination of tolterodine and pilocarpine was administered to a healthy human subject. To the subject 2 mg of tolterodine followed by 10 mg of pilocarpine were administered with various delays in the administration of pilocarpine. Saliva flow was measured as before.
In one study, 10 mg of pilocarpine was administered to the subject 15 minutes after the administration of 2 mg of tolterodine. Saliva flow was measured as before. In another study, 10 mg of pilocarpine was administered to the subject 22 minutes after the administration of 2 mg of tolterodine. Saliva flow was measured as before. […] Saliva flow was measured as before.

[5] = Time −0.17 hr (pre-dose), text gives saliva flow in g/2 min

SMILES	amount of saliva flow collected over 2 minute periods after dosing (in words) (healthy human subject [1])	time at which saliva flow reached the pre-dose level (healthy human subject [1])	Amount of Saliva Collecetd over 2 min (healthy human subject [2]; Time 0 hr)	Amount of Saliva Collecetd over 2 min (healthy human subject [2]; Time 0.5 hr)	Amount of Saliva Collecetd over 2 min (healthy human subject [2]; Time 1 hr)	Amount of Saliva Collecetd over 2 min (healthy human subject [2]; Time 1.5 hr)	Amount of Saliva Collecetd over 2 min (healthy human subject [2]; Time 2 hr)	Amount of Saliva Collecetd over 2 min (healthy human subject [2]; Time 3 hr)	Amount of Saliva Collecetd over 2 min (healthy human subject [2]; Time 4 hr)	Amount of Saliva Collecetd over 2 min (healthy human subject [2]; Time 5 hr)	Amount of Saliva Collecetd over 2 min (healthy human subject [2]; Time 6 hr)	Amount of Saliva Collecetd over 2 min (healthy human subject [2]; Time 8 hr)	Amount of Saliva Collecetd over 2 min (healthy human subject [2]; [5])	amount of saliva flow collected over 2 minute periods after dosing (in words) (healthy human subject [2]; FIG. 5)	time at which saliva flow reached the pre-dose level (healthy human subject [2]; FIG. 5)	also measured
CCN(CC)CC#CCOC(=O)C(O)(c1ccccc1)C1CCCCC1 (stereo not shown) [Oxybutynin, oxybutynin]	decreased	8 h	2.4536	1.8558	1.2308	1.2326	1.3548	1.1829	1.5868	2.1475	2.0096	2.3028	2.2208	decreased	8 h	time after which saliva flow started increasing again (healthy human subject [1]; 5 mg oxybutynin HCl alone): 3 h; time after which saliva flow started increasing again (healthy human subject [2]; 5 mg oxybutynin HCl alone, FIG. 5): 3 h
CC1OC2(CS1)CN1CCC2CC1 (stereo not shown) [Cevimeline, cevimeline]	–	–	2.6273	2.7791	4.1213	4.6029	3.7314	3.5888	3.5914	2.6099	2.205	1.7973	2.4808	increased sharply	about 6 hrs	time of peak saliva flow (healthy human subject [2]; 30 mg cevimeline alone, FIG. 5): close to two hours; Amount of Saliva Collecetd over 2 min (healthy human subject [2]; Time 2.5 hr): 3.7641; Amount of Saliva Collecetd over 2 min (healthy human subject [2]; Time 3.5 hr): 3.9316
CC[C@@H]1C(=O)OC[C@@H]1Cc1cncn1C [pilocarpine]	increased sharply	about 5 hrs	–	–	–	–	–	–	–	–	–	–	–	–	–	time of peak saliva flow (healthy human subject [1]; pilocarpine HCl alone): half an hour; effect of pilocarpine on the plasma concentration of oxybutynin [3]: does not affect the plasma concentration of oxybutynin at all
Cc1ccc(O)c([C@H](CCN(C(C)C)C(C)C)c2ccccc2)c1 (stereo in doubt) [tolterodine, (R)-2-[3-[bis(1-methylethyl-amino]-1-phenylpropyl]-4-methylphenol [R—(R*,R*)]-2,3-dihydroxybutanedionic acid]	–	–	–	–	–	–	–	–	–	–	–	–	–	–	–	time after which saliva flow started increasing again (healthy human subject [4]): about 4 hrs; amount of saliva flow collected over 2 minute periods after dosing (in words) (healthy human subject [4]; 8 hour period, FIGS. 6 and 7): decreased; time at which saliva flow reached the pre-dose levels (healthy human subject [4]; not completely reached at end of observation): > 8 h
